# US11649227B2, “Allosteric chromenone inhibitors of phosphoinositide 3-kinase (PI3K) for the treatment of disease” (Petra Pharma Corporation, priority 2020, dated 2023)
# Experiments:
# [1] = biological target: human full length PIK3CA H1047R mutant (p110α/p85α complex) (Homo sapiens (Human), UniProt P42336, H1047R); assay: PI3K-Alpha kinase (PIK3CA) activity, H1047R mutant, Transcreener ADP2 FI assay; settings: PI3K-α (PIK3CA) H1047R mutant, biochemical
# Outline: (§1)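 Recombinant full-length p110α/p85α (1-5 nM, wild-type or H1047R) preincubated with compound 1 h at 27° C, then reacted with 25 uM ATP and 50 uM PIP2diC8 or membrane PIP2:PS in pH 7.4 HEPES, 25 mM MgCl2, 5% DMSO (also pH 6.0/6.4 MOPS). Run to ~2.5 uM ADP; Transcreener ADP2 fluorescence converted via ADP calibration for IC50.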
# [2] = test system: T-47D; assay: Cellular Assay T-47D; assay type: cell-based; settings: Homo sapiens, T47D; T-47D cells
# [3] = biological target: human full length PIK3CA Wild-type (p110α/p85α complex) (Homo sapiens (Human), UniProt P42336); assay: PI3K-Alpha kinase (PIK3CA) activity, wild-type, Transcreener ADP2 FI assay; settings: PI3K-α (PIK3CA) wild-type, biochemical
# Outline: as §1
# human full length PIK3CA H1047R mutant (p110α/p85α complex), sequence (P42336 whole entry H1047R): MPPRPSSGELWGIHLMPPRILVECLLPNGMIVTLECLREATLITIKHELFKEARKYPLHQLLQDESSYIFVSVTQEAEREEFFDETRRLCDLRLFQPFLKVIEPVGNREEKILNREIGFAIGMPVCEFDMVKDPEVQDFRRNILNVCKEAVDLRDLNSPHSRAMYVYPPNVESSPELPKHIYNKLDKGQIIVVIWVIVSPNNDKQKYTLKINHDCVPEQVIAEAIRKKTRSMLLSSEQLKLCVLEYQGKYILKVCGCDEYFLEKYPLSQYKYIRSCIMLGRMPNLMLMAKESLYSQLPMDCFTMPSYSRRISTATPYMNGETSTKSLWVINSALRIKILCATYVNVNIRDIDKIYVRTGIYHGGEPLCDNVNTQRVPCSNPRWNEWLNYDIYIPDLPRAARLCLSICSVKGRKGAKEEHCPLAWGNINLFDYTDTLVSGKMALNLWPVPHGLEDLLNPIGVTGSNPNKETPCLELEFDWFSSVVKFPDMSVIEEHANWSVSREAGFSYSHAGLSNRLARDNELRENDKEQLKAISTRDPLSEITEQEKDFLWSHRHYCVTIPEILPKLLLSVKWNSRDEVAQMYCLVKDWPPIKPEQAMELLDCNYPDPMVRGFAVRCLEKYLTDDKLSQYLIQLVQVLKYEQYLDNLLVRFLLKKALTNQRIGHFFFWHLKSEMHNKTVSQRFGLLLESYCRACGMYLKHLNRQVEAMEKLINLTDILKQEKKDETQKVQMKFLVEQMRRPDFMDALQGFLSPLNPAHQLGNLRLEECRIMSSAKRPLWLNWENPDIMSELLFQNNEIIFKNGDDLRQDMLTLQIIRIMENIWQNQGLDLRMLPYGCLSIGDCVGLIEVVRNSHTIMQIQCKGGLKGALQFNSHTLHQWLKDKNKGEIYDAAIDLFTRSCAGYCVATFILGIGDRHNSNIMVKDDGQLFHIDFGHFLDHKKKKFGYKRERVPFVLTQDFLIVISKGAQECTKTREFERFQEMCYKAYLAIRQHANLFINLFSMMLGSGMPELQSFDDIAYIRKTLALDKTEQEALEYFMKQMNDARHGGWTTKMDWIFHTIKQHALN
# human full length PIK3CA H1047R mutant (p110α/p85α complex), sequence (P27986 whole entry partner): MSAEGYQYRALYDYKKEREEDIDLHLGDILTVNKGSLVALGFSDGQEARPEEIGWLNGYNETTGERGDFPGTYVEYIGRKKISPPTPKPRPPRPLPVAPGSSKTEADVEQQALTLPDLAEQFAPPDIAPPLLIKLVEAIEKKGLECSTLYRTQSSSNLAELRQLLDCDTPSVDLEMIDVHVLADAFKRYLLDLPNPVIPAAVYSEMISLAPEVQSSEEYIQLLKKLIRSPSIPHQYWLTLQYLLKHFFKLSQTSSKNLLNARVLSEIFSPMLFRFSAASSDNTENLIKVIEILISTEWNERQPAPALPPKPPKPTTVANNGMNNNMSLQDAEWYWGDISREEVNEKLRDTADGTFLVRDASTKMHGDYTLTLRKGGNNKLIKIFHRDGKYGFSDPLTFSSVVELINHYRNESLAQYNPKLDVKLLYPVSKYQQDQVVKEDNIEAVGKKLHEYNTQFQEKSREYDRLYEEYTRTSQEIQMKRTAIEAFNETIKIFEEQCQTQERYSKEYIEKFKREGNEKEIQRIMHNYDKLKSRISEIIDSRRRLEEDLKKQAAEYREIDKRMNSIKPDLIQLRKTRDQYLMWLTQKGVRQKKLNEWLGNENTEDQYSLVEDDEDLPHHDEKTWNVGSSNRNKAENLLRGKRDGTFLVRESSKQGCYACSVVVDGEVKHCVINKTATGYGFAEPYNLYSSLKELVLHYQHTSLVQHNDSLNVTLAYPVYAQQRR
# human full length PIK3CA Wild-type (p110α/p85α complex), sequence (P42336 whole entry): as the sequence (P42336 whole entry H1047R) above, with R1047H counted along it
# human full length PIK3CA Wild-type (p110α/p85α complex), sequence (P27986 whole entry partner): as the sequence (P27986 whole entry partner) above
SMILES,IC50 [1] [nM],EC50 [2] [µM],IC50 [3] [nM]
"COc1cc(C(=O)O)c(NC(C)c2cc(C)cc3c(=O)cc(N4CCC(C)(C)CC4)oc23)cc1F (stereo not drawn) [Example 1, 2-[1-[2-(4,4-dimethyl-1-piperidyl)-6-methyl-4-oxo-chromen-8-yl]ethylamino]-4-fluoro-5-methoxy-benzoic acid]",1000 to 5000,15 to 24,–
"Cc1cc(C(C)Nc2ccccc2C(=O)O)c2oc(N3CCCC(C)C3)cc(=O)c2c1 (stereo not drawn) [Example 79, 2-[1-[6-Methyl-2-(3-methyl-1-piperidyl)-4-oxo-chromen-8-yl]ethylamino]benzoic acid]",–,1 to 5,–
"Cc1cc(C(C)Nc2c(C)cccc2C(=O)O)c2oc(N3CCC(C)(C)CC3)cc(=O)c2c1 (stereo not drawn) [Example 17, 2-[1-[2-(4,4-Dimethyl-1-piperidyl)-6-methyl-4-oxo-chromen-8-yl]ethylamino]-3-methyl-benzoic acid]",–,> 24,–
"Cc1cc(C(C)Nc2ccccc2C(=O)O)c2oc(N3CCC4(CCOCC4)CC3)cc(=O)c2c1 (stereo not drawn) [Example 94, 2-[1-[6-Methyl-2-(3-oxa-9-azaspiro[5.5]undecan-9-yl)-4-oxo-chromen-8-yl]ethylamino]benzoic acid]",–,5 to 15,–
"Cc1cc([C@@H](C)Nc2ccccc2C(=O)O)c2oc(N3CCCCC3)cc(=O)c2c1 [Example 376, 2-[[(1R)-1-[6-Methyl-4-oxo-2-(1-piperidyl)chromen-8-yl]ethyl]amino]benzoic acid]",–,1 to 5,1000 to 5000
"Cc1cc(C(C)Nc2ccccc2C(=O)O)c2oc(N3CCC4(CCCCO4)CC3)cc(=O)c2c1 (stereo not drawn) [Example 93, 2-[1-[6-Methyl-2-(1-oxa-9-azaspiro[5.5]undecan-9-yl)-4-oxo-chromen-8-yl]ethylamino]benzoic acid]",500 to 1000,5 to 15,5000 to 10000
"Cc1cc(C(C)Nc2ccccc2S(N)(=O)=O)c2oc(N3CCC(C)(C)CC3)cc(=O)c2c1 (stereo not drawn) [Example 21, 2-[1-[2-(4,4-Dimethyl-1-piperidyl)-6-methyl-4-oxo-chromen-8-yl]ethylamino]benzenesulfonamide]",–,5 to 15,–
"Cc1cc(C(C)Nc2c(Cl)cccc2C(=O)O)c2oc(N3CCC(C)(C)CC3)cc(=O)c2c1 (stereo not drawn) [Example 11, 3-Chloro-2-[1-[2-(4,4-dimethyl-1-piperidyl)-6-methyl-4-oxo-chromen-8-yl]ethylamino]benzoic acid]",–,15 to 24,–
"COc1ccc(NC(C)c2cc(C)cc3c(=O)cc(N4CCC(C)(C)CC4)oc23)c(C(=O)O)c1 (stereo not drawn) [Example 15, 2-[1-[2-(4,4-Dimethyl-1-piperidyl)-6-methyl-4-oxo-chromen-8-yl]ethylamino]-5-methoxy-benzoic acid]",–,5 to 15,–
"Cc1cc(C(C)Nc2ccccc2C(=O)O)c2oc(N3CCN(C)CC3)cc(=O)c2c1 (stereo not drawn) [Example 92, 2-[1-[6-Methyl-2-(4-methylpiperazin-1-yl)-4-oxo-chromen-8-yl]ethylamino]benzoic acid]",–,> 24,–
"COCCOCCOC(=O)c1ccccc1N[C@H](C)c1cc(C)cc2c(=O)cc(N3CCCCC3)oc12 [Example 377, 2-(2-Methoxyethoxy)ethyl 2-[[(1R)-1-[6-methyl-4-oxo-2-(1-piperidyl)chromen-8-yl]ethyl]amino]benzoate]",–,> 24,–
"Cc1cc(C(C)Nc2ccccc2C(=O)O)c2oc(N3CCC4(CC3)COC4)cc(=O)c2c1 (stereo not drawn) [Example 98, 2-[1-[6-Methyl-2-(2-oxa-7-azaspiro[3.5]nonan-7-yl)-4-oxo-chromen-8-yl]ethylamino]benzoic acid]",–,> 24,–
"Cc1cc([C@@H](C)Nc2ccccc2C(=O)O)c2oc(N3CCC(Cl)CC3)cc(=O)c2c1 [Example 383, 2-[[(1R)-1-[2-(4-Chloro-1-piperidyl)-6-methyl-4-oxo-chromen-8-yl]ethyl]amino]benzoic acid]",–,1 to 5,–
"Cc1cc(C(C)Nc2cccc(Cl)c2C(=O)O)c2oc(N3CCC(C)(C)CC3)cc(=O)c2c1 (stereo not drawn) [Example 24, 2-Chloro-6-[1-[2-(4,4-dimethyl-1-piperidyl)-6-methyl-4-oxo-chromen-8-yl]ethylamino]benzoic acid]",–,> 24,–
"COC(=O)c1ccccc1N[C@H](C)c1cc(C)cc2c(=O)cc(N3CCCCC3)oc12 [Example 379, Methyl 2-[[(1R)-1-[6-methyl-4-oxo-2-(1-piperidyl)chromen-8-yl]ethyl]amino]benzoate]",–,> 24,–
"Cc1cc(C(C)Nc2ccccc2C(=O)O)c2oc(N3CCC4(CCN(C)C4=O)CC3)cc(=O)c2c1 (stereo not drawn) [Example 381, 2-[1-[6-Methyl-2-(2-methyl-1-oxo-2,8-diazaspiro[4.5]decan-8-yl)-4-oxo-chromen-8-yl]ethylamino]benzoic acid]",–,> 24,–
"Cc1cc(C(C)Nc2cc(Cl)ccc2C(=O)O)c2oc(N3CCC(C)(C)CC3)cc(=O)c2c1 (stereo not drawn) [Example 10, 4-Chloro-2-[1-[2-(4,4-dimethyl-1-piperidyl)-6-methyl-4-oxo-chromen-8-yl]ethylamino]benzoic acid]",–,15 to 24,–

SMILES,IC50 [1] [nM],EC50 [2] [µM],IC50 [3] [nM]
"Cc1cc(C(C)Nc2cc(F)c(C)cc2C(=O)O)c2oc(N3CCC(C)(C)CC3)cc(=O)c2c1 (stereo not drawn) [Example 18, 2-[1-[2-(4,4-Dimethyl-1-piperidyl)-6-methyl-4-oxo-chromen-8-yl]ethylamino]-4-fluoro-5-methyl-benzoic acid]",–,15 to 24,–
"Cc1cc(C(C)Nc2ccccc2-c2nnn[nH]2)c2oc(N3CCC(C)(C)CC3)cc(=O)c2c1 (stereo not drawn) [Example 20, 2-(4,4-Dimethyl-1-piperidyl)-6-methyl-8-[1-[2-(1H-tetrazol-5-yl)anilino]ethyl]chromen-4-one]",–,15 to 24,500 to 1000
"Cc1cc(C(C)Nc2cc(F)ccc2C(=O)O)c2oc(N3CCC(C)(C)CC3)cc(=O)c2c1 (stereo not drawn) [Example 36, 2-[1-[2-(4,4-Dimethyl-1-piperidyl)-6-methyl-4-oxo-chromen-8-yl]ethylamino]-4-fluoro-benzoic acid]",–,5 to 15,–
"Cc1cc(C(C)Nc2ccc(F)cc2C(=O)O)c2oc(N3CCC(C)(C)CC3)cc(=O)c2c1 (stereo not drawn) [Example 14, 2-[1-[2-(4,4-Dimethyl-1-piperidyl)-6-methyl-4-oxo-chromen-8-yl]ethylamino]-5-fluoro-benzoic acid]",–,1 to 5,–
"Cc1cc(C(C)Nc2ccccc2C(=O)O)c2oc(N3CCN(C(=O)OC(C)(C)C)CC3)cc(=O)c2c1 (stereo not drawn) [Example 90, 2-[1-[2-(4-tert-Butoxycarbonylpiperazin-1-yl)-6-methyl-4-oxo-chromen-8-yl]ethylamino]benzoic acid]",–,15 to 24,–
"Cc1cc(C(C)Nc2ccccc2C(=O)O)c2oc(N3CCC(C)CC3)cc(=O)c2c1 (stereo not drawn) [Example 370, 2-[1-[6-Methyl-2-(4-methyl-1-piperidyl)-4-oxo-chromen-8-yl]ethylamino]benzoic acid]",–,1 to 5,–
"Cc1cc(C(C)Nc2ccc(Br)cc2C(=O)O)c2oc(N3CCC(C)(C)CC3)cc(=O)c2c1 (stereo not drawn) [Example 7, 5-Bromo-2-[1-[2-(4,4-dimethyl-1-piperidyl)-6-methyl-4-oxo-chromen-8-yl]ethylamino]benzoic acid]",–,5 to 15,–
"Cc1cc(C(C)Nc2ccccc2C(=O)O)c2oc(N3CCC4(CCNCC4)CC3)cc(=O)c2c1 (stereo not drawn) [Example 89, 2-[1-[2-(3,9-Diazaspiro[5.5]undecan-3-yl)-6-methyl-4-oxo-chromen-8-yl]ethylamino]benzoic acid]",–,> 24,–
"Cc1cc(C(C)Nc2ccccc2C(=O)O)c2oc(N3CCC4(CC3)CN(C)C(=O)O4)cc(=O)c2c1 (stereo not drawn) [Example 380, 2-[1-[6-Methyl-2-(3-methyl-2-oxo-1-oxa-3,8-diazaspiro[4.5]decan-8-yl)-4-oxo-chromen-8-yl]ethylamino]benzoic acid]",1000 to 5000,> 24,–
"CONC(=O)c1ccccc1NC(C)c1cc(C)cc2c(=O)cc(N3CCC(C)(C)CC3)oc12 (stereo not drawn) [Example 19, 2-[1-[2-(4,4-Dimethyl-1-piperidyl)-6-methyl-4-oxo-chromen-8-yl]ethylamino]-N-methoxy-benzamide]",–,15 to 24,500 to 1000
"CCNc1cc(=O)c2cc(C)cc(C(C)Nc3ccccc3C(=O)O)c2o1 (stereo not drawn) [Example 126, 2-[1-[2-(Ethylamino)-6-methyl-4-oxo-chromen-8-yl]ethylamino]benzoic acid]",500 to 1000,> 24,–
"Cc1cc(C(C)Nc2ccc(C#N)cc2C(=O)O)c2oc(N3CCC(C)(C)CC3)cc(=O)c2c1 (stereo not drawn) [Example 6, 5-Cyano-2-[1-[2-(4,4-dimethyl-1-piperidyl)-6-methyl-4-oxo-chromen-8-yl]ethylamino]benzoic acid]",–,1 to 5,–
"Cc1cc(CNc2ccccc2C(=O)O)c2oc(N3CCC(C)(C)CC3)cc(=O)c2c1 [Example 369, 2-[[2-(4,4-Dimethyl-1-piperidyl)-6-methyl-4-oxo-chromen-8-yl]methylamino]benzoic acid]",–,> 24,–
"Cc1cc(C(C)Nc2ccccc2C(=O)O)c2oc(N(C)C)cc(=O)c2c1 (stereo not drawn) [Example 78, 2-[1-[2-(Dimethylamino)-6-methyl-4-oxo-chromen-8-yl]ethylamino]benzoic acid]",–,> 24,–
"Cc1cc(C(C)Nc2ccccc2C(=O)O)c2oc(N3CCC3)cc(=O)c2c1 (stereo not drawn) [Example 375, 2-[1-[2-(Azetidin-1-yl)-6-methyl-4-oxo-chromen-8-yl]ethylamino]benzoic acid]",–,> 24,–
"Cc1cc(C(C)Nc2ccccc2C(=O)O)c2oc(N3CCCC3)cc(=O)c2c1 (stereo not drawn) [Example 368, 2-[1-(6-Methyl-4-oxo-2-pyrrolidin-1-yl-chromen-8-yl)ethylamino]benzoic acid]",–,15 to 24,–
"Cc1cc(C(C)Nc2ccccc2C(=O)O)c2oc(N3CCNCC3)cc(=O)c2c1 (stereo not drawn) [Example 91, 2-[1-(6-Methyl-4-oxo-2-piperazin-1-yl-chromen-8-yl)ethylamino]benzoic acid]",–,> 24,–
